Our source for the IC50 values is US6872805B2 (Bristol-Myers Squibb Company, priority 2000, dated 2005).

Each structure is given as a SMILES string. Bounds are passed on as bounds.

In the first assay the target is HCV NS3/4A protease complex (Hepatitis C virus genotype 1a, UniProt P27958, C1454S/C1711G). The experiment in a line: Recombinant HCV NS3/4A protease complex FRET peptide assay (strain not stated). Type of assay: biochemical. The settings on record: IC50, NS3/4A protease enzyme assay, strain not stated; activity ranges. The source says: The purpose of this in vitro assay was to measure the inhibition of HCV NS3 protease complexes, derived from the BMS, H77C or J416S strains, as described below, by compounds of the present invention.
HCV NS3/4A protease complex, sequence (P27958 1027-1711, stated change not applied): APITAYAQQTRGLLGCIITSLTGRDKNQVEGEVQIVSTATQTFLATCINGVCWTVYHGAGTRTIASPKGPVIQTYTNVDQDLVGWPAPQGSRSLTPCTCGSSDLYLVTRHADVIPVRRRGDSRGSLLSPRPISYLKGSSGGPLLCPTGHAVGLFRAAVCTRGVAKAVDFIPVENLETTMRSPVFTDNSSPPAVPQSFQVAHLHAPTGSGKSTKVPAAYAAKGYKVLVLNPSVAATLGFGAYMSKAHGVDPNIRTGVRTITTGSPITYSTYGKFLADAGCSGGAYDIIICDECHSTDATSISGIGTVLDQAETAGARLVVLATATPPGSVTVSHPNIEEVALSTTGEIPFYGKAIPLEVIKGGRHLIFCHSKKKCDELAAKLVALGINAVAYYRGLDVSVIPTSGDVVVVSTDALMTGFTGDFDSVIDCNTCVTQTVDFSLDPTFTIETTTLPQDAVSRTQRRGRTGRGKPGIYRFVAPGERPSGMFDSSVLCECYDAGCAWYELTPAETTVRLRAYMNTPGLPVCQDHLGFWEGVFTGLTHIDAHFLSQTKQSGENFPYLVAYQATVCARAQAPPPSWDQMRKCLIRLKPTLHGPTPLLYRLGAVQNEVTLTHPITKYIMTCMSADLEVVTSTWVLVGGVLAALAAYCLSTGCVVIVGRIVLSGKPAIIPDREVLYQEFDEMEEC
HCV NS3/4A protease complex, sequence (P27958 1027-1711, stated change not applied): as above
Serum from an HCV-infected patient was obtained from Dr. T. Wright, San Francisco Hospital. An engineered full-length cDNA template of the HCV genome (BMS strain) was constructed from DNA fragments obtained by reverse transcription-PCR (RT-PCR) of serum RNA and using primers selected on the basis of homology between other genotype 1a strains. […] The infectious clones, H77C (1a genotype) and J4L6S (1b genotype) were obtained from R. Purcell (NIH) and the sequences are published in genebank (AAB67036, see Yanagi, M., Purcell, R. H., Emerson, S. U. and Bukh, J. Proc. Natl. Acad. Sci. U.S.A. 94(16),8738-8743 (1997); AF054247, see Yanagi, M., St Claire, M., Shapiro, M., Emerson, S. U., Purcell, R. H. and Bukh, J, Virology 244 (1), 161-172. (1998)).
The BMS, H77C and J4L6S strains were used for production of recombinant NS3/4A protease complexes. DNA encoding the recombinant HCV NS3/4A protease complex (amino acid 1027 to 1711) for these strains were manipulated as described by P. Gallinari et al. (see Gallinari P, Paolini C, Brennan D, Nardi C, Steinkuhler C, De Francesco R. Biochemistry. 38(17):5620-32, (1999)). Briefly, a three-lysine solubilizing tail was added at the 3′-end of the NS4A coding region. The cysteine in the P1 position of the NS4A-NS4B cleavage site (amino acid 1711) was changed to a glycine to avoid the proteolytic cleavage of the lysine tag. Furthermore, a cysteine to serine mutation was introduced by PCR at amino acid position 1454 to prevent the autolytic cleavage in the NS3 helicase domain. The variant DNA fragment was cloned in the pET21b bacterial expression vector and the NS3/4A complex was expressed in E. coli BL21 (DE3) following the protocol described by P. Gallinari et al. (see Gallinari P, Brennan D, Nardi C, Brunetti M, Tomei L, Steinkuhler C, De Francesco R., J Virol. 72(8):6758-69 (1998)) with modifications. Briefly, NS3/4A expression was induced with 0.5 mM IPTG for 22 hr at 20° C. […] The cells were resuspended in lysis buffer (10 mL/g) consisting of 25 mM HEPES, pH 7.5, 20% glycerol, 500 mM NaCl, 0.5% Triton-X100, 1 ug/ml lysozyme, 5 mM MgCl2, 1 ug/ml DNaseI 5 mM β-Mercaptoethanol (βME), Protease inhibitor—EDTA free, homogenized and incubated for 20 mins at 4° C. The homogenate was sonicated and clarified by ultra-centrifugation at 235000 g for 1 hr at 4° C. Imidazole was added to the supernatant to a final concentration of 15 mM and the pH adjusted to 8.0. The crude protein extract was loaded on a Ni-NTA column pre-equilibrated with buffer B (25 mM HEPES, pH 8.0, 20% glycerol, 500 mM NaCl, 0.5% Triton-X100, 15 mM imidazole, 5 mM βME). The sample was loaded at a flow rate of 1 mL/min. The column was washed with 15 column volumes of buffer C (same as buffer B except with 0.2% Triton-X100). The protein was eluted with 5 column volumes of 200 mM Imidazole in buffer.
NS3/4A protease complex-containing fractions were pooled and loaded on a desalting column Superdex-S200 pre-equilibrated with buffer D (25 mM HEPES, pH 7.5, 20% glycerol, 300 mM NaCl, 0.2% Triton-X100, 10 mM βME). Sample was loaded at a flow rate of 1 mL/min. NS3/4A protease complex-containing fractions were pooled and concentrated to approximately 0.5 mg/ml.
As usually defined, the IC50 is the concentration that inhibits the measured activity by half. `CCC1CC1(NC(=O)[C@@H]1C[C@@H](Oc2cc(-c3ccccc3)nc3cc(OC)ccc23)CN1C(=O)[C@H](CC1CCCCC1)NC(=O)OC(C)(C)C)C(=O)NS(=O)(=O)C1CC1` (stereo partly shown) [Compound 78]: the IC50 is below 50 nM. As to `CCC1CC1(NC(=O)[C@@H]1C[C@@H](Oc2cc(-c3ccccc3)nc3cc(OC)ccc23)CN1C(=O)[C@H](CC1CCCCC1)NC(=O)OC(C)(C)C)C(=O)NS(C)(=O)=O` (stereo partly shown) [Compound 75], the concentration for half-maximal inhibition (IC50) is below 500 nM.

Take `C=CC1CC1(NC(=O)[C@@H]1C[C@@H](Oc2cc(-c3ccccc3)nc3cc(OC)ccc23)CN1C(=O)[C@H](CC1CCCCC1)NC(=O)OC(C)(C)C)C(=O)NS(=O)(=O)C(F)(F)F` (stereo partly shown) [Compound 82]: the IC50 was below 50000 nM. On to `C=CC1CC1(NC(=O)OC(C)(C)C)C(=O)N1C[C@H](Oc2cc(-c3ccccc3)nc3cc(OC)ccc23)CC1C(=O)N[C@]1(C(=O)NS(=O)(=O)C2CC2)C[C@H]1C=C` (stereo partly drawn) [Compound 97, {1S-[2S-(1R-cyclopropanesulfonylamino-carbonyl-2S-vinylcyclopropylcarbamoyl)-4R-(7-methoxy-2-phenyl-quinolin-4-yloxy)-pyrrolidine-1-carbonyl]-2-vinyl-cyclopropyl}-carbamic acid tert-butyl ester], for which the IC50 is below 500 nM. On to `C=CC1C[C@]1(NC(=O)[C@@H]1C[C@@H](Oc2cc(-c3ccccc3)nc3cc(OC)ccc23)CN1C(=O)[C@@H](NC(=O)OC(C)(C)C)C(C)(C)C)C(=O)NS(=O)(=O)c1ccc(-c2ccccc2)cc1` (stereo partly shown) [Compound 65], for which the half-maximal inhibitory concentration (IC50) is below 500 nM. `CCC1CC1(NC(=O)[C@@H]1C[C@@H](Oc2cc(-c3ccccc3)nc3cc(OC)ccc23)CN1C(=O)[C@H](CC1CCCCC1)NC(=O)OC(C)(C)C)C(=O)NS(=O)(=O)C1CC1` (stereo partly shown) [Compound 77]: the IC50 is below 50000 nM. With `C=CC1CC1(NC(=O)[C@@H]1C[C@@H](Oc2cc(-c3ccccc3)nc3cc(OC)ccc23)CN1C(=O)[C@H](CC1CCCCC1)NC(=O)OC(C)(C)C)C(=O)NS(=O)(=O)C1CC1` (stereo partly shown) [Compound 79], the IC50 was below 500 nM.

In the case of `C=CC1C[C@]1(NC(=O)[C@@H]1C[C@@H](Oc2cc(-c3ccccc3)nc3cc(OC)ccc23)CN1C(=O)C(NC(=O)OC(C)(C)C)C(C)(C)C)C(=O)NS(=O)(=O)c1c(C(C)C)cc(C(C)C)cc1C(C)C` (stereo partly shown) [Compound 64], the IC50 was below 5000 nM. On to `C=CC1CC1(NC(=O)[C@@H]1C[C@@H](Oc2cc(-c3ccccc3)nc3cc(OC)ccc23)CN1C(=O)[C@H](CC(C)C)NC(=O)OC(C)(C)C)C(=O)NS(=O)(=O)C(F)(F)F` (stereo partly shown) [Compound 84], for which the IC50 was below 5000 nM.

`C=CC1CC1(NC(=O)[C@@H]1C[C@@H](Oc2cc(-c3ccccc3)nc3cc(OC)ccc23)CN1C(=O)[C@H](CC(C)C)NC(=O)OC(C)(C)C)C(=O)NS(C)(=O)=O` (stereo partly shown) [Compound 90]: the IC50 was below 500 nM. As for `C=CC1CC1(NC(=O)[C@@H]1C[C@@H](Oc2cc(-c3ccccc3)nc3cc(OC)ccc23)CN1C(=O)[C@H](CC1CCCCC1)NC(=O)OC(C)(C)C)C(=O)NS(=O)(=O)C(F)(F)F` (stereo partly shown) [Compound 81], the IC50 was below 5000 nM. Turning to `C=CC1C[C@]1(NC(=O)[C@@H]1C[C@@H](Oc2cc(-c3ccccc3)nc3cc(OC)ccc23)CN1C(=O)[C@@H](NC(=O)OC(C)(C)C)C(C)(C)C)C(=O)NS(=O)(=O)c1ccc(OC(F)(F)F)cc1` (stereo partly shown) [Compound 66], the IC50 was below 500 nM.

For the compound `CCC1CC1(NC(=O)[C@@H]1C[C@@H](Oc2cc(-c3ccccc3)nc3cc(OC)ccc23)CN1C(=O)[C@H](CC1CCCCC1)NC(=O)OC(C)(C)C)C(=O)NS(=O)(=O)C(F)(F)F` (stereo partly shown) [Compound 80], the IC50 is below 5000 nM. `C=CC1CC1(NC(=O)[C@@H]1C[C@@H](Oc2cc(-c3ccccc3)nc3cc(OC)ccc23)CN1C(=O)[C@H](CC(C)C)NC(=O)OC(C)(C)C)C(=O)NS(=O)(=O)C1CC1` (stereo partly shown) [Compound 93]: the concentration for half-maximal inhibition (IC50) is below 50 nM.

`C=CC1C[C@]1(NC(=O)[C@@H]1C[C@@H](Oc2cc(-c3ccccc3)nc3cc(OC)ccc23)CN1C(=O)[C@@H](NC(=O)OC(C)(C)C)C(C)(C)C)C(=O)N[S+]([O-])C(C)(C)C` (stereo partly shown) [Compound 62]: the IC50 is below 5000 nM. On to `COc1ccc2c(O[C@@H]3C[C@@H](C(=O)NC4(C(=O)NS(=O)(=O)C5CC5)CC45CCC5)N(C(=O)[C@@H](NC(=O)OC(C)(C)C)C(C)C)C3)cc(-c3ccccc3)nc2c1` (stereo partly shown) [Compound 138], for which the IC50 was below 5000 nM.

For the compound `COc1ccc2c(OC3C[C@@H](C(=O)NC4(C(=O)NS(=O)(=O)C5CC5)CC45CCCC5)N(C(=O)[C@@H](NC(=O)OC(C)(C)C)C(C)(C)C)C3)cc(-c3ccccc3)nc2c1` (stereo partly shown) [Compound 139, {1-[2-(1-Cyclopropanesulfonylaminocarbonyl-spiro[2.4]hept-1-ylcarbamoyl)-4-(7-methoxy-2-phenyl-quinolin-4-yloxy)-pyrrolidine-1-carbonyl]-2,2-dimethyl-propyl}carbamic acid tert-butyl ester], the half-maximal inhibitory concentration (IC50) is below 5000 nM. The same measure, in the same setting: for `CCC1CC1(NC(=O)[C@@H]1C[C@@H](Oc2cc(-c3ccccc3)nc3cc(OC)ccc23)CN1C(=O)[C@H](CC1CCCCC1)NC(=O)OC(C)(C)C)C(=O)NS(C)(=O)=O` (stereo partly shown) [Compound 74] the value was below 5000 nM; for `C=CC1CC1(NC(=O)[C@@H]1C[C@@H](Oc2cc(-c3ccccc3)nc3cc(OC)ccc23)CN1C(=O)[C@H](CC1CCCCC1)NC(=O)OC(C)(C)C)C(=O)NS(C)(=O)=O` (stereo partly shown) [Compound 76], below 500 nM; for `C=CC1CC1(NC(=O)[C@@H]1C[C@@H](Oc2cc(-c3ccccc3)nc3cc(OC)ccc23)CN1C(=O)[C@@H](NC(=O)OC(C)(C)C)C(C)(C)C)C(=O)NS(C)(=O)=O` (stereo partly shown) [Compound 88], below 500 nM. Turning to `C=CC1CC1(NC(=O)[C@@H]1C[C@@H](Oc2cc(-c3ccccc3)nc3cc(OC)ccc23)CN1C(=O)[C@@H](NC(=O)OC(C)(C)C)C(C)C)C(=O)NS(=O)(=O)C1CC1` (stereo partly shown) [Compound 92], the IC50 was below 50 nM.

For `CCC1C[C@]1(NC(=O)[C@@H]1C[C@@H](Oc2cc(-c3ccccc3)nc3cc(OC)ccc23)CN1C(=O)[C@@H](NC(=O)OC(C)(C)C)C(C)C)C(=O)NS(C)(=O)=O` (stereo partly shown) [Compound 1], the half-inhibitory concentration (IC50) was below 500 nM. As for `C=CC1CC1(NC(=O)[C@@H]1C[C@@H](Oc2cc(-c3ccccc3)nc3cc(OC)ccc23)CN1C(=O)[C@@H](NC(=O)OC(C)(C)C)C(C)C)C(=O)NS(=O)(=O)C(F)(F)F` (stereo partly shown) [Compound 85], the half-inhibitory concentration (IC50) is below 500 nM.

Still in this assay, the particulars now being: IC50, separated isomers of Compound 97; strain not stated.
With `C=CC1CC1(NC(=O)OC(C)(C)C)C(=O)N1C[C@H](Oc2cc(-c3ccccc3)nc3cc(OC)ccc23)CC1C(=O)N[C@]1(C(=O)NS(=O)(=O)C2CC2)C[C@H]1C=C` (stereo partly drawn) [higher RF isomer, {1S-[2S-(1R-cyclopropanesulfonylamino-carbonyl-2S-vinylcyclopropylcarbamoyl)-4R-(7-methoxy-2-phenyl-quinolin-4-yloxy)-pyrrolidine-1-carbonyl]-2-vinyl-cyclopropyl}-carbamic acid tert-butyl ester], the 50% inhibitory concentration (IC50) worked out at 250 nM. On the same count and under the same terms, in the case of `C=CC1CC1(NC(=O)OC(C)(C)C)C(=O)N1C[C@H](Oc2cc(-c3ccccc3)nc3cc(OC)ccc23)CC1C(=O)N[C@]1(C(=O)NS(=O)(=O)C2CC2)C[C@H]1C=C` (stereo partly drawn) [lower RF isomer, {1S-[2S-(1R-cyclopropanesulfonylamino-carbonyl-2S-vinylcyclopropylcarbamoyl)-4R-(7-methoxy-2-phenyl-quinolin-4-yloxy)-pyrrolidine-1-carbonyl]-2-vinyl-cyclopropyl}-carbamic acid tert-butyl ester] it was 24 nM.
